Source: patent publication US20050008623A1, “In vitro production of dendritic cells from CD14+ monocytes” (priority 2001, published 2005)

Key:
Type in all cases: cell-based, human
[1] = test system: Langerhans cells generated in vitro; test: Chemoattraction and migration of Langerhans cells of Example 6
[2] = test system: dendritic cells generated in vitro (CCR6 receptor); test: Chemoattraction of undifferentiated immature dendritic cells (CCR6 functionality); settings: day 6 cells of Example 4
Experimental: The culture medium is initially supplemented with a third cytokine, namely the cytokine IL-13 at a rate of 10 ng/ml. Before 2 days of culture at the most, the same culture medium devoid of IL-13 is added up to day 6 of culture.

IDC (DC-SIGN+) = test: Maturation marker DC-LAMP expression after TNFα, interstitial dendritic cells; settings: 200 IU/ml for 48 hours from day 6
Experimental: (§1) On day 6, the cytokine TNFα is added at a rate of 200 IU/ml for 48 h.
(§2) The advantage of a substantially homogeneous dual population of LC and IDC is the possibility of interacting with both cell types as in the in vivo situation. To study the maturation pathways of LC and IDC generated in vitro, we analyzed the intracytoplasmic expression of maturation marker DC-LAMP on both LC and IDC. To this end, the experiments were performed according to the following protocol: • 2.10^5 cells of a mixed population comprising LC and IDC generated in vitro are incubated successively with: • either 5 microliters of anti-DC-SIGN antibody (2 micrograms/milliliter) or 10 microliters of anti-Langerin antibody (2 micrograms/milliliter), for 30 minutes at 4° C.; • 10 microliters of anti-mouse goat antibody coupled with the fluorochrom FITC (Fluorescein IsoThioCyanate) at the concentration of 1 microgram/milliliter for 30 min at 4° C.; • blocking with normal mouse serum diluted to 1/20; • 10 microliters of anti-DC-LAMP antibody coupled with fluorochrom PE (PhycoErythrin) at the concentration of 1 microgram/milliliter for 30 minutes at 4° C. • the results are expressed as the percentage of LC which are DC-LAMP positive and IDC which are DC-LAMP positive. […]

Langerin+LC population = test: Maturation marker DC-LAMP expression after TNFα, Langerhans cells; settings: 200 IU/ml for 48 hours from day 6
Experimental: as §1, §2

[3] = test system: dendritic cells generated in vitro (CCR7 receptor); test: Chemoattraction of activated mature dendritic cells (CCR7 functionality); settings: activated mature cells of Example 8 (TNFα more than 20 hours)
Experimental: Within the framework of the invention, the culture medium is initially supplemented with a third cytokine, namely the cytokine IL-13 at a rate of 10 ng/ml. The culture is carried out up to day 6, irrespective of the incubation time of the cytokine IL-13.

IL-1β: cytokine under whose effect Langerhans cells migrate
migration of Langerhans cells [1]: migrating

MIP-3α: ligand of the specific receptor CCR6
chemoattraction of Langerhans cells [1]: capable of being chemoattracted
chemoattraction of dendritic cells [2]: strongly chemoattracted

TNFα
expression of maturation marker DC-LAMP on IDC (IDC (DC-SIGN+)): do not express
percentage of LC which are DC-LAMP positive (Langerin+LC population): 50%

B1: MIP-3β: ligand of the specific receptor CCR7 (protein, UniProt Q99731 22-98, looked up)
C-C motif chemokine 19: GTNDAEDCCLSVTQKPIPGYIVRNFHYLLIKDGCRVPAVVFTTLRGRQLCAPPDQPWVERIIQRLQRTSAKMKRRSS
chemoattraction of dendritic cells [3]: strongly chemoattracted
